Source: patent US20110154724A1, “FATTY ESTER COMPOSITIONS WITH IMPROVED OXIDATIVE STABILITY” (TAMINCO, priority 2008, published 2011)
Each block holds one molecule with its values, some of them ahead of it.

Legend:
[1] = Rancimat oxidative stability (EN 14112) of biodiesel with additives; assay type: physicochemical; details: for Rancimat oxidative stability: untreated 5.1 hours, EN 14112
From the text: The oxidative stability of biodiesel is an important property thereof and is subjected to criteria which may differ from country to country. In the US, oxidative testing of biodiesel is done according to ASTM 6751-08 whereby the B100 (100% biodiesel) must pass a minimum of three hours oxidative stability as done by the Rancimat test. The European oxidation criteria is a minimum of six hours as per EN 14112. Some commercial biodiesel manufacturers and blenders require even eight hours oxidative stability to ensure that B100 biodiesel stored for prolonged periods of time will be suitable for commerce.
Use was made in this example of a pure soy-biodiesel (methyl ester of soy oil) from a commercial source having a Rancimat oxidative stability (tested in accordance with EN 14112) of 5.1 hours.

[2] = Solubility tests of antioxidant package components in alkanolamine / hydroxylamine; assay type: physicochemical
Description: Additionally, 2 grams of octyldiethanolamine (ODEA) was added to the additive mixture.

[3] = 25° C.; cited from earlier work
[4] = 450 ppm added to B100 soy-biodiesel

Compound: CC1(C)CC(O)CC(C)(C)N1[O] [4-HT, 4-hydroxy-2,2,6,6-tetramethylpiperidino-1-oxy]
Rancimat oxidative stability ([1]; 50 ppm added to B100 soy-biodiesel): 5.5 h

solubility in OAE ([2]; 0.5 grams 4-HT along with 1 gram propyl gallate into 15 grams OAE): completely soluble
Compound: CCCOC(=O)c1cc(O)c(O)c(O)c1 [propyl gallate]

Compound: CCN(O)CC [Diethylhydroxylamine, diethylhydroxylamine]
vapor pressure [3]: 32 Torr

oxidation stability ([1]; 250 ppm added to a different sample of soy methyl ester): 3.5 h
Rancimat oxidative stability [1, 4]: 6.1 h
Compound: CCCCN(CCO)CCO [BDEA, butyldiethanolamine]

Rancimat oxidative stability [1, 4]: 8.3 h
solubility in anhydrous DEHA ([2]; 0.5 grams 4-HT into 7.5 grams anhydrous DEHA, additionally 2 grams ODEA): completely soluble
Compound: CCCCCCCCN(CCO)CCO [ODEA, octyldiethanolamine]
